Measurements reported in ChEMBL document CHEMBL1201862, “PubChem BioAssay data set” (2004).
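Cultured in 96-well plates, cells were exposed to test compound for 48 hours across five concentrations. GI50 = concentration required for 50% inhibition of growth.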 Active and inactive are the calls of the source. No stated cut-off is given here; in the data, active = GI50 up to about 1.1 µM and inactive = higher. Square brackets hold non-standard residues; d marks the D form. Peptide text beside a SMILES is read from it. * marks the point of attachment. AllylGly = C=CC[CH](N)C(=O)O; Boc = CC(C)(C)OC(=O)*; OtBu = CC(C)(C)O*

Experiments:
Experiment in all cases: inhibition of tumour cell growth, NCI panel, 48 h
[1] = test system: KM-20L2
[2] = test system: DMS-114
[3] = test system: XF498
[4] = test system: M19-MEL
[5] = test system: MDA-N
[6] = test system: DMS-273
[7] = test system: HOP-18
[8] = test system: LXFL 529
[9] = test system: RXF 631

| Compound | GI50 [1] | GI50 [2] | GI50 [5] | GI50 [6] | other results |
| --- | --- | --- | --- | --- | --- |
| COc1cc(/C=C(\C#N)C(=O)c2ccccc2)ccc1OCc1ccccc1 | > 100 µM (inactive) | > 100 µM (inactive) |  |  | GI50 [3]: > 100 µM (inactive); GI50 [4]: > 100 µM (inactive) |
| Cc1ccc(CC(=O)Nc2ccc(NC(=O)/C=C/NC(=O)/C=C/c3ccc(-c4ccccc4)cc3)cc2C(=O)c2ccccc2)cc1 |  |  | 2.5 µM (inactive) |  |  |
| O=C(/C=C1\C[C@H]2C=Nc3ccccc3C(=O)N2C1)NCCCCNC(=O)/C=C1\C[C@H]2C=Nc3ccccc3C(=O)N2C1 |  |  | 11 µM (inactive) |  |  |
| CCCC(=O)Nc1cc(/C=C/C(=O)N2CC(CCl)c3c2cc(OC(C)=O)c2[nH]cc(C)c32)n(C)c1 (stereo unspecified) |  |  | 5.12e-05 µM (active) |  |  |
| O=C(Cc1ccccc1)NN1C(=O)C(Cl)C1c1ccccc1Cl (stereo unspecified) | 98.6 µM (inactive) | 32.6 µM (inactive) |  | 72.8 µM (inactive) | GI50 [7]: > 100 µM (inactive); GI50 [8]: 33.6 µM (inactive); GI50 [3]: > 75 µM (inactive); GI50 [4]: > 100 µM (inactive) |
| CCOc1ccc(NC(=O)C2=C(C)NC(C)=C(C(=O)Nc3ccc(OCC)cc3)C2c2ccccc2)cc1 | 67 µM (inactive) | 44.2 µM (inactive) |  | > 100 µM (inactive) | GI50 [8]: 51.3 µM (inactive); GI50 [3]: > 100 µM (inactive); GI50 [9]: > 100 µM (inactive); GI50 [4]: > 100 µM (inactive) |
| O=C(CC(CC(=O)Oc1c(Br)cc(Br)cc1C(=O)O)C(=O)Oc1c(Br)cc(Br)cc1C(=O)O)Oc1c(Br)cc(Br)cc1C(=O)O | 56.6 µM (inactive) | 31.8 µM (inactive) |  | > 100 µM (inactive) | GI50 [8]: 58.6 µM (inactive); GI50 [3]: 0.504 µM (active); GI50 [4]: > 100 µM (inactive) |
| O=C(O)CSc1n[nH]c(=O)[nH]c1=O |  |  | > 100 µM (inactive) |  |  |
| C=CC1(CBr)CCC(C(C)(C)Br)O1 (stereo unspecified) |  |  | 8.57 µM (inactive) |  |  |
| CC(=O)c1cccc(N2COC(C)(C)c3nc4ccccc4n3C2)c1 | > 100 µM (inactive) | > 100 µM (inactive) |  | > 100 µM (inactive) | GI50 [7]: > 100 µM (inactive); GI50 [8]: > 100 µM (inactive); GI50 [3]: > 100 µM (inactive); GI50 [4]: > 100 µM (inactive) |
| N#CC(C#N)C(c1ccccc1)c1ccccc1 | > 100 µM (inactive) | 70.8 µM (inactive) |  | > 100 µM (inactive) | GI50 [7]: > 100 µM (inactive); GI50 [8]: > 100 µM (inactive); GI50 [9]: > 100 µM (inactive) |
| OCC1OC(n2cnc3c(SCc4ccccc4)ncnc32)C(O)C1O (stereo unspecified) |  |  | > 100 µM (inactive) |  |  |
| O=C(/N=c1/[nH]/c(=N/C(=O)c2ccccc2)ss1)c1ccccc1 | 29.5 µM (inactive) | 26.7 µM (inactive) |  | 23.1 µM (inactive) | GI50 [4]: 33.6 µM (inactive) |
| CN(C)CC/C(=N\Nc1ccc(Cl)cc1)c1ccccc1 | 0.176 µM (active) | 0.933 µM (active) |  | 0.366 µM (active) | GI50 [7]: 2.13 µM (inactive); GI50 [8]: 0.182 µM (active); GI50 [4]: 1.7 µM (inactive) |
| COc1cc(C(c2cccc3ccccc23)N2C(=O)CCC2C(=O)NCc2ccccc2)cc(OC)c1OC (stereo unspecified) |  |  | > 100 µM (inactive) |  |  |
| COc1cc(OC)c2c(c1OC)OCC(Cc1ccc(O)cc1)C2=O (stereo unspecified) |  |  | > 25 µM (inactive) |  |  |

| Compound | GI50 [1] | GI50 [2] | GI50 [5] | GI50 [6] | other results |
| --- | --- | --- | --- | --- | --- |
| C[C@@H]1S[C@H](c2c(F)cccc2Cl)n2c1nc1ccccc12 |  |  | 7.62 µM (inactive) |  |  |
| CN1CCc2c(sc3ncn(C)c(=N)c23)C1 |  |  | > 100 µM (inactive) |  |  |
| CC(C)[C@@H](COC(C)(C)C)/N=C/N1CCc2c([nH]c3ccccc23)C1 | > 100 µM (inactive) | > 100 µM (inactive) |  | > 100 µM (inactive) | GI50 [8]: > 100 µM (inactive); GI50 [3]: 36.1 µM (inactive) |
| CCCc1c(C(=O)OCC)[nH]c(C(=O)CCC(=O)c2[nH]c(C(=O)OCC)c(CCC)c2C(=O)OCC)c1C(=O)OCC | > 100 µM (inactive) | > 100 µM (inactive) |  | 84.5 µM (inactive) | GI50 [7]: > 100 µM (inactive); GI50 [8]: > 100 µM (inactive); GI50 [3]: 54.3 µM (inactive); GI50 [4]: > 100 µM (inactive) |
| C=CCC(NC(=O)C(CC(=O)OC(C)(C)C)NC(=O)OC(C)(C)C)C(=O)OC (stereo unspecified) (Boc-Asp(OtBu)-[AllylGly]-OMe; configuration not given here) |  |  | 31 µM (inactive) |  |  |
| COc1c(-c2nc3ccc(N4CCN(C)CC4)cc3[nH]2)cc(OC)c2[nH]c(CO)nc12 |  |  | 89.7 µM (inactive) |  |  |
| C[N+](C)(C)[BH-](Br)C(O)O (stereo unspecified) |  |  | > 100 µM (inactive) |  |  |
| O=C1CCC(=O)c2sccc2N1 | > 100 µM (inactive) | > 100 µM (inactive) |  | > 100 µM (inactive) | GI50 [7]: > 100 µM (inactive); GI50 [8]: > 100 µM (inactive); GI50 [3]: > 100 µM (inactive); GI50 [4]: > 100 µM (inactive) |
| CC(=O)OCC1OC(O[C@@H]2c3c(O)c4c(c(O)c3C3=C(NN(c5ccc([N+](=O)[O-])cc5[N+](=O)[O-])[Se]3=O)[C@@]2(C)O)C(=O)c2ccccc2C4=O)C(OC(C)=O)C(OC(C)=O)C1OC(C)=O (stereo partly specified) |  |  | 0.273 µM (active) |  |  |
| O=C(O)CNC(=O)CO/N=C1/C(=C2/C(=O)Nc3ccccc32)Nc2ccccc21 |  |  | 84.9 µM (inactive) |  |  |
| c1csc(-c2cscc2-c2ccsc2)c1 |  |  | 33.3 µM (inactive) |  |  |
| c1ccc(C2(c3cc4ccccc4[nH]3)OCCO2)cc1 |  |  | 49.1 µM (inactive) |  |  |
| Cc1ccc2c3ccc4c(c3n(C)c2c1)C(=O)C=CC4=O |  |  | 4.94 µM (inactive) |  |  |
| CCN(CC)CCC(=O)c1ccc(Cl)c(Cl)c1 |  |  | > 10 µM (inactive) |  |  |
| O=C1C(Cl)=C(NCCO)C(=O)c2c(O)ccc(O)c21 |  |  | 1.77 µM (inactive) |  |  |
